Experimental data reported in patent US20190352358A1, “COMPOUNDS, COMPOSITIONS AND USES THEREOF FOR IMPROVEMENT OF BONE DISORDERS” (ALIZE PHARMA III SAS, priority 2017, published 2019).
Values belong to the compound of their own block, whether it stands above or below them. Residues, ends and D or L forms follow the SMILES beside them. No end group written: not given here. *: point of attachment. Arachidoyl = CCCCCCCCCCCCCCCCCCCC(=O)*; Stearoyl = CCCCCCCCCCCCCCCCCC(=O)*; Palmitoyl = CCCCCCCCCCCCCCCC(=O)*; Myristoyl = CCCCCCCCCCCCCC(=O)*

Experiments:
[1] = Pharmacokinetics in male Sprague Dawley rats after intravenous and subcutaneous injection (Example 10); format: in vivo; conditions: 1 μmol net peptide/kg, rat; for exposure after administration by either dose route (in words): iv and sc
Procedure: The peptides were reconstituted in saline (0.9% NaCl). Three male Sprague Dawley rats were used per group. Intravenous doses were administered into a lateral tail vein at the dose of 1 μmol net peptide/kg. Subcutaneous doses were administered into the right flank of each animal, also at the dose of 1 μmol net peptide/kg. Following dosing, serial whole blood samples (ca. 0.25 mL) were collected from a lateral tail vein into K2EDTA treated containers. Following each blood sample collection, samples were placed into a cooling block at 4° C. Samples were collected prior to dosing then at 2, 5, 15 and 30 minutes then 1, 2, 4, 6 and 8 and 24 hours post dose for intravenous injection and at 15 and 30 minutes then 1, 2, 4, 6, 8 and 24 hours post dose for subcutaneous injection.
Blood samples were centrifuged at 10000×g for 2 minutes at 4° C. and resultant plasma aspirated off into clean fully, labelled tubes. Plasma samples were snap frozen following aspiration then stored at −80° C. Peptides were extracted and analyzed as described in Example 9. The limits of quantification of these methods were 0.001 nmol/mL for cyclic HBD1 (3-11) and HBD1 (3-11) and 0.003 nmol/mL for HBD1 (1-13). All values below these limits of quantification were considered as zero.

[2] = Pharmacokinetics of acylated analogs in male Sprague Dawley rats after subcutaneous injection (Example 11); format: in vivo; set-up: AUC(0-t): concentration or dose not given beside the values; conditions: sc, rat; for AUC(0-t) / Cmax / Tmax: male, Sprague Dawley, plasma; for AUC(0-t) / Cmax / Tmax / Tlast (last time point with detectable peptide): Table 24
Procedure: The peptides were reconstituted in saline (0.9% NaCl). Three male Sprague Dawley rats (approximately 6 weeks of age) were used per group. Subcutaneous doses were administered into the right flank of each animal […]. Following dosing, serial whole blood samples (ca. 0.3 mL) were collected from retro-orbital sinus into K2EDTA treated containers. Following each blood sample collection, samples were placed into a cooling block at 4° C. Samples were collected prior to dosing then at 15 and 30 minutes then 1, 2, 4, 6, 8 and 24 hours post dose for subcutaneous injection. Blood samples were centrifuged at 3500×rpm for 10 minutes at 4° C. and resultant plasma aspirated off into clean fully, labelled tubes. Plasma samples were snap frozen following aspiration then stored at −80° C. The peptides were extracted with acetonitrile:water (75:25, v/v) and analyzed using developed LC-MS/MS methods as described in Example 9. The limits of detection of these methods are 0.003 nmol/mL for HBD1 (1-13) with palmitic acid at the N-terminus (C16:0), 0.0008 nmol/mL for HBD1 (3-11) with palmitic acid at the N-terminus (C16:0), 0.0070 nmol/mL for HBD1 (3-11) with stearic acid at the N-terminus (C18:0), and 0.0015 nmol/mL for HBD1 (3-11) with myristic acid at the N-terminus (C14:0), HBD1 (3-11) with arachidic acid at the N-terminus (C20:0), HBD1 (3-11) with palmitic diacid at the N-terminus (C16:0-diacid), HBD1 (3-11) with palmitic acid at the C-terminus (C16:0). All values below these limits of quantification were considered as zero.

[3] = Stability of HBD1 fragments in human plasma; format: in vitro ADME; conditions: for Remaining parent peptide in human plasma 48 hours post spike / remaining at 24 h, 1 μg/mL / remaining at 48 h, 1 μg/mL / Remaining parent peptide in human plasma 24 hours post spike: spiked at 1 μg/mL, 37° C.; for stability in human plasma (in words): 24 and 48 hours incubation at 37° C.; for remaining at 24 h, 1 μg/mL / remaining at 48 h, 1 μg/mL: human, human K2EDTA plasma; for remaining at 24 h, 1 μg/mL: read-out: Remaining parent peptide in human plasma 24 hours post spike; for remaining at 48 h, 1 μg/mL: read-out: Remaining parent peptide in human plasma 48 hours post spike
Procedure: The peptides were spiked at 1 μg/mL (peptide backbone) into pre-warmed human K2EDTA plasma (at 37° C.) and incubated for up to 48 hours. Aliquots of plasma were extracted at specific time points (0, 24 and 48 hours post spike). Extraction was performed with acetonitrile:water (75:25, v/v) for HBD1 (1-13), HBD1 (1-13) with palmitic acid at the N-terminus (C16:0), HBD1 (3-11) with palmitic acid at the N-terminus (C16:0)) and HBD1 (3-11) with stearic acid at the N-terminus (C18:0) or with acetonitrile:water:formic acid (75:25:0.1, v/v/v) for HBD1 (3-11) and cyclic HBD1 (3-11). The peptides were analyzed using developed LC (C18 reverse phase column)—positive ion electrospray MS/MS methods specific to each peptide. The peak area at each time point was expressed as a percentage of the value obtained for the t=0 minutes time point.

[4] = system: MC-3T3 E1 clone 4 (CL4) osteoblast cells; experiment: Osteocalcin expression during in vitro osteoblast differentiation, acylated and cyclic analogs (Example 7); format: cell-based; conditions: Table 18; test peptide 1 μg/L; 18-21 day interval
Procedure: Each acylated peptide was tested in a biologic assay measuring its ability to stimulate differentiation of osteoblast cells over a 18-21 day interval as assessed by the stimulation of osteocalcin protein synthesis. MC-3T3 E1 clone 4 (CL4) osteoblast cells were obtained from ATCC (Manassas, Va., USA). Cells were cultured in α-MEM containing 10% fetal bovine serum (FBS; Thermo Fisher Scientific, Pittsburgh, Pa., USA). After confluency, culture medium was changed to differentiation medium (DM), which contained 10% FBS plus 50 μg/mL ascorbic acid and 4 mM β-glycerol phosphate, with or without a test peptide (1 μg/L). Fresh DM, with or without test peptide, was applied every 72 hours. The cell monolayers were lysed in a modified radioimmunoprecipitation assay (RIPA) buffer. Total cellular protein in the lysates was determined using BCA (Thermo Fisher Scientific, Rockford, Ill., USA). Cell proteins are separated on SDS-PAGE gel and transferred on PVDF membrane for analysis. Osteocalcin detection was performed using anti-osteocalcin antibody at 1:200 dilution (Santa Cruz Biotechnology, Inc, Santa Cruz, Calif., USA) and visualized using enhanced chemiluminescence (Thermo Fisher Scientific, Rockford, Ill., USA).
In a separate experiment, the effect of cyclization was examined on of the HBD1 (3-11) peptide. The cyclic HBD1 (3-11) was synthetized and tested on the in vitro osteoblast differentiation assay.

[5] = male, Sprague Dawley, plasma, iv
[6] = male, Sprague Dawley, plasma, sc

Compound: CCCCCCCCCCCCCCCCCCCC(=O)N[C@@H](Cc1c[nH]cn1)C(=O)N[C@@H](CC(C)C)C(=O)NCC(=O)N[C@@H](CC(C)C)C(=O)N[C@@H](CCC(=O)O)C(=O)N[C@@H](CCC(=O)O)C(=O)N1CCC[C@H]1C(=O)N[C@@H](CCCCN)C(=O)N[C@@H](CCCCN)C(=O)O [SEQ ID NO: 74, C20:0-HLGLEEPKK] (Arachidoyl-HLGLEEPKK-OH; C-terminus assumed)
peptide exposure compared among acylated peptides (in words) [2]: lower exposure than HBD1 (3-11) with stearic acid at the N-terminus (C18:0)

Compound: CCCCCCCCCCCCCCCC(=O)N[C@@H](Cc1c[nH]cn1)C(=O)N[C@@H](Cc1c[nH]cn1)C(=O)N[C@@H](CC(C)C)C(=O)NCC(=O)N[C@@H](CC(C)C)C(=O)N[C@@H](CCC(=O)O)C(=O)N[C@@H](CCC(=O)O)C(=O)N1CCC[C@H]1C(=O)N[C@@H](CCCCN)C(=O)N[C@@H](CCCCN)C(=O)O [compound 68] (Palmitoyl-HHLGLEEPKK-OH; C-terminus assumed)
Fold increase vs DM ± SE [4]: 2.52 ± 0.52 fold

Compound: CCCCCCCCCCCCCCCCCC(=O)N[C@@H](Cc1c[nH]cn1)C(=O)N[C@@H](Cc1c[nH]cn1)C(=O)N[C@@H](CC(C)C)C(=O)NCC(=O)N[C@@H](CC(C)C)C(=O)N[C@@H](CCC(=O)O)C(=O)N[C@@H](CCC(=O)O)C(=O)N1CCC[C@H]1C(=O)N[C@@H](CCCCN)C(=O)N[C@@H](CCCCN)C(=O)O [compound 69] (Stearoyl-HHLGLEEPKK-OH; C-terminus assumed)
Fold increase vs DM ± SE [4]: 2.48 ± 0.27 fold

Compound: CCCCCCCCCCCCCCCCCCCC(=O)N[C@@H](Cc1c[nH]cn1)C(=O)N[C@@H](Cc1c[nH]cn1)C(=O)N[C@@H](CC(C)C)C(=O)NCC(=O)N[C@@H](CC(C)C)C(=O)N[C@@H](CCC(=O)O)C(=O)N[C@@H](CCC(=O)O)C(=O)N1CCC[C@H]1C(=O)N[C@@H](CCCCN)C(=O)N[C@@H](CCCCN)C(=O)O [compound 70] (Arachidoyl-HHLGLEEPKK-OH; C-terminus assumed)
Fold increase vs DM ± SE [4]: 2.11 ± 0.11 fold

Compound: CCCCCCCCCCCCCC(=O)N[C@@H](Cc1c[nH]cn1)C(=O)N[C@@H](CC(C)C)C(=O)NCC(=O)N[C@@H](CC(C)C)C(=O)N[C@@H](CCC(=O)O)C(=O)N[C@@H](CCC(=O)O)C(=O)N1CCC[C@H]1C(=O)N[C@@H](CCCCN)C(=O)N[C@@H](CCCCN)C(=O)O [compound 71] (Myristoyl-HLGLEEPKK-OH; C-terminus assumed)
Fold increase vs DM ± SE [4]: 1.98 ± 0.22 fold
AUC(0-t) [2]: 1.11 µM·h
Cmax [2]: 240 nM
Tmax [2]: 1 h
Tlast (last time point with detectable peptide) [2]: 6 h

Compound: HLGLEEPKK [SEQ ID NO: 10, HLGLEEPKK]
stability in human plasma (in words) [3]: very stable
Remaining parent peptide in human plasma 24 hours post spike [3]: 92%
Remaining parent peptide in human plasma 48 hours post spike [3]: 87%
exposure after administration by either dose route (in words) [1]: no quantifiable exposure

Compound: KHHLGLEEPKKLR [compound 1]
remaining at 24 h, 1 μg/mL [3]: 29%
remaining at 48 h, 1 μg/mL [3]: 18%

Now from value to compound:

bioavailability ([1]; male, Sprague Dawley, plasma, subcutaneous, sc vs iv, read-out: F (bioavailability)): 35%
AUC(0-t) [1, 5]: 4.46 µM·h
Cmax [1, 5]: 7890 nM
Tmax [1, 5]: 0.033 h
AUC(0-t) [1, 6]: 1.57 µM·h
Cmax [1, 6]: 410 nM
Tmax [1, 6]: 1 h
Compound: CCCCCCCCCCCCCCCC(=O)N[C@@H](Cc1c[nH]cn1)C(=O)N[C@@H](CC(C)C)C(=O)NCC(=O)N[C@@H](CC(C)C)C(=O)N[C@@H](CCC(=O)O)C(=O)N[C@@H](CCC(=O)O)C(=O)N1CCC[C@H]1C(=O)N[C@@H](CCCCN)C(=O)N[C@@H](CCCCN)C(=O)O [SEQ ID NO: 72, C16:0-HLGLEEPKK] (Palmitoyl-HLGLEEPKK-OH; C-terminus assumed)

Remaining parent peptide in human plasma 48 hours post spike [3]: 52%
Compound: CCCCCCCCCCCCCCCC(=O)N[C@@H](CCCCN)C(=O)N[C@@H](Cc1c[nH]cn1)C(=O)N[C@@H](Cc1c[nH]cn1)C(=O)N[C@@H](CC(C)C)C(=O)NCC(=O)N[C@@H](CC(C)C)C(=O)N[C@@H](CCC(=O)O)C(=O)N[C@@H](CCC(=O)O)C(=O)N1CCC[C@H]1C(=O)N[C@@H](CCCCN)C(=O)N[C@@H](CCCCN)C(=O)N[C@@H](CC(C)C)C(=O)N[C@@H](CCCNC(=N)N)C(=O)O [SEQ ID NO: 78, C16:0-KHHLGLEEPKKLR] (Palmitoyl-KHHLGLEEPKKLR-OH; C-terminus assumed)

stability in human plasma (in words) [3]: similar
remaining at 24 h, 1 μg/mL [3]: 94%
remaining at 48 h, 1 μg/mL [3]: 87%
AUC(0-t) [2]: 1.34 µM·h
Cmax [2]: 350 nM
Tmax [2]: 1 h
Tlast (last time point with detectable peptide) [2]: 8 h
Compound: CCCCCCCCCCCCCCCC(=O)N[C@@H](Cc1c[nH]cn1)C(=O)N[C@@H](CC(C)C)C(=O)NCC(=O)N[C@@H](CC(C)C)C(=O)N[C@@H](CCC(=O)O)C(=O)N[C@@H](CCC(=O)O)C(=O)N1CCC[C@H]1C(=O)N[C@@H](CCCCN)C(=O)N[C@@H](CCCCN)C(=O)O [compound 72] (Palmitoyl-HLGLEEPKK-OH)

stability in human plasma (in words) [3]: similar
remaining at 24 h, 1 μg/mL [3]: 98%
remaining at 48 h, 1 μg/mL [3]: 95%
Compound: CC(C)C[C@@H]1NC(=O)CNC(=O)[C@H](CC(C)C)NC(=O)[C@H](Cc2c[nH]cn2)NC(=O)[C@H](CCCCN)NC(=O)[C@H](CCCCN)NC(=O)[C@@H]2CCCN2C(=O)[C@H](CCC(=O)O)NC(=O)[C@H](CCC(=O)O)NC1=O [compound 77] (cyclo(EEPKKHLGL))

remaining at 24 h, 1 μg/mL [3]: 58%
remaining at 48 h, 1 μg/mL [3]: 52%
AUC(0-t) [2]: 0.01 µM·h
Cmax [2]: 10 nM
Tmax [2]: 6 h
Tlast (last time point with detectable peptide) [2]: 8 h
Compound: CCCCCCCCCCCCCCCC(=O)N[C@@H](CCCCN)C(=O)N[C@@H](Cc1c[nH]cn1)C(=O)N[C@@H](Cc1c[nH]cn1)C(=O)N[C@@H](CC(C)C)C(=O)NCC(=O)N[C@@H](CC(C)C)C(=O)N[C@@H](CCC(=O)O)C(=O)N[C@@H](CCC(=O)O)C(=O)N1CCC[C@H]1C(=O)N[C@@H](CCCCN)C(=O)N[C@@H](CCCCN)C(=O)N[C@@H](CC(C)C)C(=O)N[C@@H](CCCNC(=N)N)C(=O)O [compound 78] (Palmitoyl-KHHLGLEEPKKLR-OH)

remaining at 24 h, 1 μg/mL [3]: 92%
remaining at 48 h, 1 μg/mL [3]: 87%
Compound: HLGLEEPKK [compound 10]

stability in human plasma (in words) [3]: markedly degraded
Remaining parent peptide in human plasma 24 hours post spike [3]: 29%
Remaining parent peptide in human plasma 48 hours post spike [3]: 18%
exposure after administration by either dose route (in words) [1]: no quantifiable exposure
Compound: KHHLGLEEPKKLR [SEQ ID NO: 1, KHHLGLEEPKKLR, reference compound]
